Data from patent US20230391772A1, “METHODS AND COMPOSITIONS FOR TARGETED PROTEIN DEGRADATION” (Ranok Therapeutics (Hangzhou) Co. Ltd., priority 2020, published 2023).

Assays:
HSP90a protein = target: T1, HSP90a protein (Homo sapiens, UniProt P07900); assay: HSP90α-binding fluorescent polarization (FP) assay, BODIPY-labeled RNK04010 probe; conditions: FP competition with RNK04010 (BODIPY-labeled), 5 nM, 300 min at 25° C.
T1 construct: purchased BPS Bioscience 50298
In short: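 Displacement of a 5 nM fluorescent HSP90 ligand from the N-terminal HSP90a domain by FP. Incubation ran at 25° C: 120 min for the FITC-geldanamycin tracer, 300 min for the BODIPY-conjugated triazolone RNK04010.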

[1] = tested on: MIA PaCa-2 human pancreatic carcinoma; assay: MIA PaCa-2 CCK-8 proliferation assay; format: cell-based; conditions: Homo sapiens, MIA PaCa-2, 72 h, MIA PaCa-2 cells
In short: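 MIA PaCa-2 (2 copies KRAS(G12C)), NCI-H358 and NCI-H23 (1 copy KRAS(G12C) each) were exposed to compound in 3-fold serial dilutions from 20 μM to 1.02 nM. Viability was read as CCK-8 absorbance, and % inhibition was computed against DMSO-treated cells, with cell-free DMSO medium as blank.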

KRAS(G12C) [2] = target: T2, KRAS(G12C) (Homo sapiens, UniProt P01116, G12C); assay: KRAS(G12C)/SOS1 homogeneous time-resolved fluorescence (HTRF) assay; set-up: purchased Cisbio 63ADK000CB16PEG; conditions: absence of GTP, 4° C. for 3 hr, read-out: KRAS (G12C) binding
T2 sequence (P01116 1-188 isoform P01116-2 G12C): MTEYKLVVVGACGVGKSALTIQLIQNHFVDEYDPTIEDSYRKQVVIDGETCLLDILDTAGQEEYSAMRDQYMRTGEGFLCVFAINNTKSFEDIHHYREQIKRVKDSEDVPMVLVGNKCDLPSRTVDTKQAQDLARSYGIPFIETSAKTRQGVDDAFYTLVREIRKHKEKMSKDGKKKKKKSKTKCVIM
In short: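 HTRF kit measuring compound-induced block of KRAS(G12C)-SOS1 interaction without GTP. Compounds tested as 3-fold serial dilutions down to 1.02 nM, incubated with reaction components 3 h at 4 °C in sealed plates before fluorescence read.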

KRAS(G12C) [3] = target: T2, KRAS(G12C); assay: KRAS(G12C) Western blot protein degradation assay in LU65A cells; format: cell-based; set-up: LU65A human lung cancer cell line, which expresses KRAS(G12C); host or cells: LU65A; conditions: 6 hr
In short: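 Cells treated with compound at various concentrations at 37 °C for 48 hr (MIA PaCa-2) or 6 hr (LU65A), then lysed in RIPA. Protein-normalized lysates immunoblotted for KRAS with β-actin, fluorescence quantified; DC50 is the concentration giving 50% of maximal KRAS degradation.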

| Compound | IC50 (HSP90a protein) [nM] | EC50 [1] [nM] | IC50 (KRAS(G12C) [2]) [nM] | DC50 (KRAS(G12C) [3]) [nM] |
| --- | --- | --- | --- | --- |
| C=CC(=O)N1CCN(c2nc(OCCN3CCN(C(=O)C4CCN(Cc5ccc(-n6c(O)nnc6-c6cc(C)c(O)cc6O)cc5)CC4)CC3)nc3c2CCN(c2cccc4cccc(Cl)c24)C3)C[C@@H]1CC#N [Compound 223, (S)-2-(1-acryloyl-4-(7-(8-chloronaphthalen-1-yl)-2-(2-(4-(1-(4-(3-(2,4-dihydroxy-5-methylphenyl)-5-hydroxy-4H-1,2,4-triazol-4-yl)benzyl)piperidine-4-carbonyl)piperazin-1-yl)ethoxy)-5,6,7,8-tetrahydropyrido[3,4-d]pyrimidin-4-yl)piperazin-2-yl)acetonitrile] | < 100 | > 1000 | < 100 | 100 to 1000 |
| C=CC(=O)N1CCN(c2nc(OC[C@@H]3C[C@H](N4CCC5(CCN(Cc6ccc(-n7c(O)nnc7-c7cc(C(C)C)c(O)cc7O)cc6)CC5)CC4)CN3C)nc3c2CCN(c2cccc4cccc(Cl)c24)C3)C[C@@H]1CC#N [Compound 334, 2-[(2S)-4-[7-(8-chloronaphthalen-1-yl)-2-{[(2S,4S)-4-[9-({4-[3-(2,4-dihydroxy-5-isopropylphenyl)-5-hydroxy-1,2,4-triazol-4-yl]phenyl}methyl)-3,9-diazaspiro[5.5]undecan-3-yl]-1-methylpyrrolidin-2-yl]methoxy}-5H,6H,8H-pyrido[3,4-d]pyrimidin-4-yl]-1-(prop-2-enoyl)piperazin-2-yl]acetonitrile] | < 100 | < 100 | < 100 | 100 to 1000 |
| C=CC(=O)N1CCN(c2nc(OCCN3CCN(C(=O)C4CCN(Cc5ccc(-n6c(C(=O)NCC(F)(F)F)nnc6-c6cc(C(C)C)c(O)cc6O)cc5)CC4)CC3)nc3c2CCN(c2cccc4cccc(Cl)c24)C3)C[C@@H]1CC#N [Compound 206, (S)-4-(4-((4-(4-(2-((4-(4-acryloyl-3-(cyanomethyl)piperazin-1-yl)-7-(8-chloronaphthalen-1-yl)-5,6,7,8-tetrahydropyrido[3,4-d]pyrimidin-2-yl)oxy)ethyl)piperazine-1-carbonyl)piperidin-1-yl)methyl)phenyl)-5-(2,4-dihydroxy-5-isopropylphenyl)-N-(2,2,2-trifluoroethyl)-4H-1,2,4-triazole-3-carboxamide, trifluoroacetic acid] | < 100 | 100 to 1000 | 100 to 1000 | > 1000 |
| C=CC(=O)N1CCN(c2nc(OCCN3CCN(Cc4ccc(-n5c(O)nnc5-c5cc(C)c(O)cc5O)cc4)CC3)nc3c2CCN(c2cccc4cccc(Cl)c24)C3)C[C@@H]1CC#N [Compound 213, (S)-2-(1-acryloyl-4-(7-(8-chloronaphthalen-1-yl)-2-(2-(4-(4-(3-(2,4-dihydroxy-5-methylphenyl)-5-hydroxy-4H-1,2,4-triazol-4-yl)benzyl)piperazin-1-yl)ethoxy)-5,6,7,8-tetrahydropyrido[3,4-d]pyrimidin-4-yl)piperazin-2-yl)acetonitrile] | < 100 | > 1000 | 100 to 1000 | > 1000 |
| C=CC(=O)N1CCN(c2nc(OC[C@@H]3C[C@H](N4CCC(C(=O)N5CCN(Cc6ccc(-n7c(C(=O)NC)nnc7-c7cc(C(C)C)c(O)cc7O)cc6)CC5)CC4)CN3C)nc3c2CCN(c2cccc4cccc(Cl)c24)C3)C[C@@H]1CC#N [Compound 234, 4-{4-[(4-{1-[(3S,5S)-5-({[7-(8-chloronaphthalen-1-yl)-4-[(3S)-3-(cyanomethyl)-4-(prop-2-enoyl)piperazin-1-yl]-5H,6H,8H-pyrido[3,4-d]pyrimidin-2-yl]oxy}methyl)-1-methylpyrrolidin-3-yl]piperidine-4-carbonyl}piperazin-1-yl)methyl]phenyl}-5-(2,4-dihydroxy-5-isopropylphenyl)-N-methyl-1,2,4-triazole-3-carboxamide] | < 100 | 100 to 1000 | < 100 | > 1000 |
| C=CC(=O)N1CCN(c2nc(OCC3CN(C(=O)C4CCN(Cc5ccc(-n6c(C(=O)NCC(F)(F)F)nnc6-c6cc(C)c(O)cc6O)cc5)CC4)C3)nc3c2CCN(c2cccc4cccc(Cl)c24)C3)C[C@@H]1CC#N [Compound 219, (S)-4-(4-((4-(3-(((4-(4-acryloyl-3-(cyanomethyl)piperazin-1-yl)-7-(8-chloronaphthalen-1-yl)-5,6,7,8-tetrahydropyrido[3,4-d]pyrimidin-2-yl)oxy)methyl)azetidine-1-carbonyl)piperidin-1-yl)methyl)phenyl)-5-(2,4-dihydroxy-5-methylphenyl)-N-(2,2,2-trifluoroethyl)-4H-1,2,4-triazole-3-carboxamide] | < 100 | > 1000 | 100 to 1000 | > 1000 |
| C=CC(=O)N1CCN(c2nc(OC[C@@H]3CC[C@H](CN4CCN(C(=O)C5CCN(Cc6ccc(-n7c(O)nnc7-c7cc(C(C)C)c(O)cc7O)cc6)CC5)CC4)N3C)nc3c2CCN(c2cccc4ccccc24)C3)C[C@@H]1CC#N [Compound 255, 2-[(2S)-4-(2-{[(2S,5R)-5-({4-[1-({4-[3-(2,4-dihydroxy-5-isopropylphenyl)-5-hydroxy-1,2,4-triazol-4-yl]phenyl}methyl)piperidine-4-carbonyl]piperazin-1-yl}methyl)-1-methylpyrrolidin-2-yl]methoxy}-7-(naphthalen-1-yl)-5H,6H,8H-pyri-do[3,4-d]pyrimidin-4-yl)-1-(prop-2-enoyl)piperazin-2-yl] acetonitrile] | – | 100 to 1000 | < 100 | 100 to 1000 |
| C=CC(=O)N1CCN(c2nc(OC[C@@H]3C[C@H](N4CCN(Cc5ccc(-n6c(O)nnc6-c6cc(C(C)C)c(O)cc6O)cc5)CC4)CN3C)nc3c2CCN(c2cccc4ccc(F)c(Cl)c24)C3)C[C@@H]1CC#N [Compound 277, 2-[(2S)-4-[7-(8-chloro-7-fluoronaphthalen-1-yl)-2-{[(2S,4S)-4-[4-({4-[3-(2,4-dihydroxy-5-isopropylphenyl)-5-hydroxy-1,2,4-triazol-4-yl]phenyl}methyl)piperazin-1-yl]-1-methylpyrrolidin-2-yl]methoxy}-5H,6H,8H-pyrido[3,4-d]pyrimidin-4-yl]-1-(prop-2-enoyl)piperazin-2-yl]acetonitrile] | – | 100 to 1000 | < 100 | > 1000 |
| C=CC(=O)N1CCN(c2nc(OC[C@@H]3C[C@H](N4CCN(C(=O)C5CCN(Cc6ccc(-n7c(C(=O)NCC)nnc7-c7cc(C(C)C)c(O)cc7O)cc6)CC5)CC4)CN3C)nc3c2CCN(c2cccc4cccc(Cl)c24)C3)C[C@@H]1CC#N [Compound 283, 4-{4-[(4-{4-[(3S,5S)-5-({[7-(8-chloronaphthalen-1-yl)-4-[(3S)-3-(cyanomethyl)-4-(prop-2-enoyl)piperazin-1-yl]-5H,6H,8H-pyrido[3,4-d]pyrimidin-2-yl]oxy}methyl)-1-methylpyrrolidin-3-yl]piperazine-1-carbonyl}piperidin-1-yl)methyl]phenyl}-5-(2,4-dihydroxy-5-isopropylphenyl)-N-ethyl-1,2,4-triazole-3-carboxamide] | – | 100 to 1000 | < 100 | < 100 |
